According to ChEMBL document CHEMBL5038665, “Identification of the Benzoimidazole Compound as a Selective FLT3 Inhibitor by Cell-Based High-Throughput Screening of a Diversity Library” (J Med Chem, 2022):
Active and inactive are the calls of the source. No cut-off for these calls is given here.

How the values were obtained:
[1] = Induction of apoptosis in mouse Ba/F3 FLT3-ITD cells assessed as survival population at 1 uM measured after 48 hrs by Annexin V-FITC/propidium iodide staining based flow cytometry(reference value: 93.99 %); type: functional
[2] = biological target: Mast/stem cell growth factor receptor Kit (Homo sapiens, UniProt P10721); test: Inhibition of KIT (unknown origin)
HL-60 = test: Antiproliferative activity against human HL-60 cells expressing wild type FLT3 assessed as reduction in cell viability measured after 72 hrs by MTS assay; type: functional, cell-based; details: HL-60, 72 h
MOLM-13 [3] = test: Induction of apoptosis in human MOLM-13 cells assessed as survival population at 0.5 uM measured after 48 hrs by Annexin V-FITC/propidium iodide staining based flow cytometry(reference value: 97.35 %); type: functional
[4] = Clearance in 12 hrs fasted Sprague-Dawley rat at 15 mg/kg, po measured upto 24 hrs by LC-MS analysis; type: ADME, organism-based; details: in vivo
[5] = Induction of apoptosis in mouse BaF3 cells assessed as survival population at 1 uM measured after 48 hrs by Annexin V-FITC/propidium iodide staining based flow cytometry(reference value: 96.35 %); type: toxicity, cell-based; details: read-out: Activity
[6] = Antiproliferative activity against human ML-1 cells expressing wild type FLT3 assessed as reduction in cell viability measured after 72 hrs by MTS assay; type: functional, cell-based; details: ML1, 72 h
[7] = Half life in 12 hrs fasted Sprague-Dawley rat at 15 mg/kg, po measured upto 24 hrs by LC-MS analysis; type: ADME, organism-based; details: in vivo
[8] = Clearance in 12 hrs fasted Sprague-Dawley rat at 2 mg/kg, iv measured upto 24 hrs by LC-MS analysis; type: ADME, organism-based; details: in vivo
[9] = biological target: T1, Receptor-type tyrosine-protein kinase FLT3 (Homo sapiens, UniProt P36888); test: Inhibition of FLT3 (unknown origin)
T1 sequence (P36888 whole entry): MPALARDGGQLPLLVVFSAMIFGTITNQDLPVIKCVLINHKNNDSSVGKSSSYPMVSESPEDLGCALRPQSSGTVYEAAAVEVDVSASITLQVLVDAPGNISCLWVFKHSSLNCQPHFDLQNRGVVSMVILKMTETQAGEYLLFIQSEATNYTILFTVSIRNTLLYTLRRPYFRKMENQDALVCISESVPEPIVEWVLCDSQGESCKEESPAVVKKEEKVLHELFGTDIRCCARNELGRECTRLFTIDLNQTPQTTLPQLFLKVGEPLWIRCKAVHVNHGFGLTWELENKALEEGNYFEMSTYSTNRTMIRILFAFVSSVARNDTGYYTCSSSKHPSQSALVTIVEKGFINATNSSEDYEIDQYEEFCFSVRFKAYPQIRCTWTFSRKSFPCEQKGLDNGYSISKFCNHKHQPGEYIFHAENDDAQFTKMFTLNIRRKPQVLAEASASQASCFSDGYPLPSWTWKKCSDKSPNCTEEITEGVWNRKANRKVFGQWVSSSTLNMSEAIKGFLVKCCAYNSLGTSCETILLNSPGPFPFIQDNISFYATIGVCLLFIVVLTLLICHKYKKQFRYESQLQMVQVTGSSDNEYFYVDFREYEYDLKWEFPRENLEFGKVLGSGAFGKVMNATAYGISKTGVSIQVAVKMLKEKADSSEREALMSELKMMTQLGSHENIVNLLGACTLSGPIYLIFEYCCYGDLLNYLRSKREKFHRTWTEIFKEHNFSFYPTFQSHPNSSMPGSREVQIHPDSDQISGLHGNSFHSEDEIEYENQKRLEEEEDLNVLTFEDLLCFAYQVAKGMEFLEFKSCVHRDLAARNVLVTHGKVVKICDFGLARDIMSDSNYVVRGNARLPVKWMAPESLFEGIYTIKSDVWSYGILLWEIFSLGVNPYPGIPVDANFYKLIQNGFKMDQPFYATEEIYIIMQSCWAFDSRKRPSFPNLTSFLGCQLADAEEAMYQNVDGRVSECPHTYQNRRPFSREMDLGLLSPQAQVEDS

MV4-11 [10] = test: Antiproliferative activity against human MV4-11 cells harboring FLT3-ITD mutant assessed as reduction in cell viability measured after 72 hrs ny MTS assay; type: functional, cell-based; details: MV4-11, 72 h
MV4-11 [11] = test: Induction of apoptosis in human MV4-11 cells assessed as survival population at 0.1 uM measured after 48 hrs by Annexin V-FITC/propidium iodide staining based flow cytometry(reference value: 98.01 %); type: functional
[12] = AUC (0-t) in 12 hrs fasted Sprague-Dawley rat at 2 mg/kg, iv measured upto 24 hrs by LC-MS analysis; type: ADME, organism-based; parameters: route intravenous, dose 2 mg/kg, time <=24; details: in vivo
[13] = Induction of apoptosis in mouse BaF3 cells assessed as survival population at 0.5 uM measured after 48 hrs by Annexin V-FITC/propidium iodide staining based flow cytometry(reference value: 96.35 %); type: toxicity, cell-based; details: read-out: Activity
MV4-11 [14] = test: Antitumor activity against human MV4-11 cells xenografted in Balb/c mouse assessed as tumor growth inhibition at 100 mg/kg, po administered for 28 days; type: functional, organism-based; details: time 28.0 day
[15] = Antitumor activity against mouse Ba/F3 FLT3-ITD cells implanted in Balb/c mouse assessed as increase in survival time at 120 mg/kg, po administered every 24 hrs (Rvb=14 days); type: functional
MOLM-13 [16] = test: Antiproliferative activity against human MOLM-13 cells harboring FLT3-ITD mutant assessed as reduction in cell viability measured after 72 hrs by MTS assay; type: functional, cell-based; details: MOLM-13, 72 h

Sequence of Mast/stem cell growth factor receptor Kit (P10721 whole entry): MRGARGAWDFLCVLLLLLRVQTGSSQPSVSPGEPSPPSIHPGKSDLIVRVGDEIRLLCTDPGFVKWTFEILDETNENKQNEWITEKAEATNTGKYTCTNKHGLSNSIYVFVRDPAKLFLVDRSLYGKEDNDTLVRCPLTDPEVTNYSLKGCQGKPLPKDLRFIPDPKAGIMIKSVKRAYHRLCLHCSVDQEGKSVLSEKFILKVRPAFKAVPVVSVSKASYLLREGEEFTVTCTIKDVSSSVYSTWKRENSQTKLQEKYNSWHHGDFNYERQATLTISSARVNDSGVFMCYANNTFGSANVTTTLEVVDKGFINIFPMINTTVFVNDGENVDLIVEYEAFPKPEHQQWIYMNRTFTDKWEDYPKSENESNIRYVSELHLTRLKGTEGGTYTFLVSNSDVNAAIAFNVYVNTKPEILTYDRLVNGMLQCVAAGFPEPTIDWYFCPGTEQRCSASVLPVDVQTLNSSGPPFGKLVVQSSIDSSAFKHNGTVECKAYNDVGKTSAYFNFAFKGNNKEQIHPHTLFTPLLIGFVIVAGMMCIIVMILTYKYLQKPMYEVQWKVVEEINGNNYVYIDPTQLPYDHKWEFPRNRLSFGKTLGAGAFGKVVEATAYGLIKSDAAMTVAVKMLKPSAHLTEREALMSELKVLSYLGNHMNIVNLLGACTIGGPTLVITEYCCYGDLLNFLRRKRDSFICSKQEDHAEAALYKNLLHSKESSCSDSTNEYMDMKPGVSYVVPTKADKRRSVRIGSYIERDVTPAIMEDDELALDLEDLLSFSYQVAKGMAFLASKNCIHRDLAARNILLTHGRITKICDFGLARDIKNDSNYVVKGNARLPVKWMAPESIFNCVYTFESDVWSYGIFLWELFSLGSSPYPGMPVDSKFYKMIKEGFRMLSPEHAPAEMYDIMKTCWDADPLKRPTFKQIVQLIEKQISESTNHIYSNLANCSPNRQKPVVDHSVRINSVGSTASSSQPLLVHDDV

Structure (SMILES): COc1cc(CNc2ccc3c(c2)ncn3-c2ccccc2)ccc1OCCO
- Activity [1]: 43.13%
- IC50 [2]: 160 nM
- IC50 (HL-60): > 50000 nM
- Activity (MOLM-13 [3]): 68.85%
- CL/F [4]: 84.7 mL/min/kg
- viability at 48 h, 1 µM [5]: 97.7%
- IC50 [6]: > 50000 nM
- half-life [7]: 4.28 h
- clearance [8]: 43.2 mL/min/kg
- IC50 [9]: 85 nM
- IC50 (MV4-11 [10]): 165 nM
- Activity (MV4-11 [11]): 94.26%
- AUC(0-t) at 24 h [12]: 800 ng·h/mL
- viability at 48 h, 0.5 µM [13]: 96.7%
- Activity (MV4-11 [14]): Active
- Time [15]: 25 days
- IC50 (MOLM-13 [16]): 66.8 nM
